Test results taken from patent US8618151B2, “Inhibitors of HCV NS5A” (Presidio Pharmaceuticals, Inc., priority 2008, dated 2013).

Test system: HCV genotype 1b replicon
Assay: HCV replicon assay (1b_Huh-Luc/Neo-ET cell line, luciferase readout)
Format: cell-based
Settings: Hepatitis C virus, Huh-7, 72 h, read-out: Inhibition of HCV genotype 1b
Procedure, shortened: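 Luciferase activity (Bright-Glo) after 72 h compound exposure, in triplicate, measured replicon levels in Huh 7-derived 1b_Huh-Luc/Neo-ET cells. EC50 was fitted from percent-of-control values and determined in repeat runs.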

Row | SMILES | EC50
1 | COC(=O)N[C@H](C(=O)N1CCC[C@H]1c1nc2ccc(-c3cccc4c(-c5cnc([C@@H]6CCCN6C(=O)[C@H](NC(=O)OC)c6ccccc6)[nH]5)cccc34)cc2[nH]1)C(C)C [compound 208] | < 1 nM
2 | COC(=O)N[C@H](C(=O)N1CCC[C@H]1c1ncc(-c2ccc3cc(-c4ccc5nc([C@@H]6CCCN6C(=O)[C@@H](NC(=O)OC)C(C)C)[nH]c5c4)ccc3n2)[nH]1)C(C)C [compound 209] | < 1 nM
3 | COC(=O)N[C@H](C(=O)N1CCC[C@H]1c1nc2ccc(-c3ccc4nc(-c5cnc([C@@H]6CCCN6C(=O)[C@H](NC(=O)OC)c6ccccc6)[nH]5)ccc4c3)cc2[nH]1)C(C)C [compound 210] | < 1 nM
4 | COC(=O)N[C@H](C(=O)N1CCC[C@H]1c1nc2ccc(-c3ccc4nc(-c5cnc([C@@H]6CCCN6C(=O)[C@@H](NC(=O)OC)C6CCOCC6)[nH]5)ccc4c3)cc2[nH]1)C(C)C [compound 211] | < 1 nM
5 | COC(=O)N[C@H](C(=O)N1CCC[C@H]1c1nc2ccc(-c3ccc4cc(-c5cnc([C@@H]6CCCN6C(=O)[C@H](NC(=O)OC)c6ccccc6)[nH]5)ccc4c3)cc2[nH]1)C1CCOCC1 [compound 212] | < 1 nM
6 | COC(=O)N[C@H](C(=O)N1CCC[C@H]1c1ncc(-c2ccc3cc(-c4ccc5nc([C@@H]6CCCN6C(=O)[C@@H](c6ccccc6)N6CCOCC6)[nH]c5c4)ccc3c2)[nH]1)C(C)C [compound 213] | < 1 nM
7 | COC(=O)N[C@H](C(=O)N1CCC[C@H]1c1ncc(-c2ccc3c(-c4ccc5[nH]c([C@@H]6CCCN6C(=O)[C@@H](NC(=O)OC)C(C)C)nc5c4)cccc3c2)[nH]1)C(C)C [compound 214] | 10 to 999 nM
8 | COC(=O)N[C@H](C(=O)N1CCC[C@H]1c1nc2ccc(-c3cccc4c(-c5cnc([C@@H]6CCCN6C(=O)[C@@H](NC(=O)OC)C6CCOCC6)[nH]5)cccc34)cc2[nH]1)C(C)C [compound 215] | < 1 nM
9 | COC(=O)N[C@H](C(=O)N1CCC[C@H]1c1nc2ccc(-c3cc4ccc(-c5cnc([C@@H]6CCCN6C(=O)[C@@H](NC(=O)OC)C6CCOCC6)[nH]5)cc4cn3)cc2[nH]1)C(C)C [compound 216] | < 1 nM
10 | COC(=O)N[C@H](C(=O)N1CCC[C@H]1c1ncc(-c2ccc3cc(-c4ccc5nc([C@@H]6CCCN6C(=O)[C@@H](NC(=O)OC)C6CCOCC6)[nH]c5c4)ncc3c2)[nH]1)C1CCOCC1 [compound 217] | 1 to 9.9 nM
11 | COC(=O)N[C@H](C(=O)N1CCC[C@H]1c1ncc(-c2ccc3cc(-c4ccc5nc([C@@H]6CCCN6C(=O)[C@@H](NC(=O)OC)C6CCCC6)[nH]c5c4)ccc3c2)[nH]1)C1CCCC1 [compound 218] | < 1 nM
12 | COC(=O)N[C@H](C(=O)N1CCC[C@H]1c1ncc(-c2ccc(-c3nc4ccc(-c5cnc([C@@H]6CCCN6C(=O)[C@@H](NC(=O)OC)C(C)C)[nH]5)cc4s3)cc2)[nH]1)C(C)C [compound 229] | < 1 nM
13 | COC(=O)N[C@@H](C(=O)N1CCC[C@H]1c1ncc(-c2ccc(-c3nc4ccc(-c5cnc([C@@H]6CCCN6C(=O)[C@H](NC(=O)OC)c6ccccc6)[nH]5)cc4s3)cc2)[nH]1)c1ccccc1 [compound 230] | < 1 nM
14 | COC(=O)N[C@H](C(=O)N1CCC[C@H]1c1ncc(-c2ccc(-c3nc4ccc(-c5cnc([C@@H]6CCCN6C(=O)[C@@H](NC(=O)OC)C(C)C)[nH]5)cc4n3C)cc2)[nH]1)C(C)C [compound 231] | < 1 nM
15 | COC(=O)N[C@H](C(=O)N1CCC[C@H]1c1ncc(-c2ccc(-c3nc4cc(-c5cnc([C@@H]6CCCN6C(=O)[C@@H](NC(=O)OC)C(C)C)[nH]5)ccc4n3C)cc2)[nH]1)C(C)C [compound 232] | < 1 nM
16 | COC(=O)N[C@@H](C(=O)N1CCC[C@H]1c1ncc(-c2ccc(-c3nc4cc(-c5cnc([C@@H]6CCCN6C(=O)[C@H](NC(=O)OC)c6ccccc6)[nH]5)ccc4n3C)cc2)[nH]1)c1ccccc1 [compound 233] | < 1 nM

Row | SMILES | EC50
17 | COC(=O)N[C@H](C(=O)N1CCC[C@H]1c1ncc(-c2ccc(-c3nc4ccc(-c5cnc([C@@H]6CCCN6C(=O)[C@@H](NC(=O)OC)C(C)C)[nH]5)cc4o3)cc2)[nH]1)C(C)C [compound 234] | < 1 nM
18 | COC(=O)N[C@@H](C(=O)N1CCC[C@H]1c1ncc(-c2ccc(-c3nc4ccc(-c5cnc([C@@H]6CCCN6C(=O)[C@H](NC(=O)OC)c6ccccc6)[nH]5)cc4o3)cc2)[nH]1)c1ccccc1 [compound 235] | < 1 nM
19 | COC(=O)N[C@H](C(=O)N1CCC[C@H]1c1ncc(-c2ccc(-c3nc4cc(-c5cnc([C@@H]6CCCN6C(=O)[C@@H](NC(=O)OC)C(C)C)[nH]5)ccc4o3)cc2)[nH]1)C(C)C [compound 236] | < 1 nM
20 | COC(=O)N[C@@H](C(=O)N1CCC[C@H]1c1ncc(-c2ccc(-c3nc4cc(-c5cnc([C@@H]6CCCN6C(=O)[C@H](NC(=O)OC)c6ccccc6)[nH]5)ccc4o3)cc2)[nH]1)c1ccccc1 [compound 237] | < 1 nM
21 | COC(=O)N[C@H](C(=O)N1CCC[C@H]1c1ncc(-c2ccc(-c3nc4cc(-c5cnc([C@@H]6CCCN6C(=O)[C@@H](NC(=O)OC)[C@@H](C)OC)[nH]5)ccc4o3)cc2)[nH]1)[C@@H](C)OC [compound 238] | < 1 nM
22 | COC(=O)N[C@H](C(=O)N1CCC[C@H]1c1ncc(-c2ccc(-c3nc4cc(-c5cnc([C@@H]6CCCN6C(=O)[C@@H](NC(=O)OC)C6CC6)[nH]5)ccc4o3)cc2)[nH]1)C1CC1 [compound 239] | < 1 nM
23 | COC(=O)N[C@H](C(=O)N1CCC[C@H]1c1ncc(-c2ccc(-c3nc4cc(-c5cnc([C@@H]6CCCN6C(=O)[C@@H](NC(=O)OC)C(C)C)[nH]5)ccc4s3)cc2)[nH]1)C(C)C [compound 240] | < 1 nM
24 | COC(=O)N[C@H](C(=O)N1CCC[C@H]1c1ncc(-c2ccc(-c3nc4ccc(-c5cnc([C@@H]6CCCN6C(=O)[C@H](NC(=O)OC)c6ccccc6)[nH]5)cc4s3)cc2)[nH]1)C(C)C [compound 241] | < 1 nM
25 | COC(=O)N[C@H](C(=O)N1CCC[C@H]1c1ncc(-c2ccc(-c3nc4ccc(-c5cnc([C@@H]6CCCN6C(=O)[C@H](NC(=O)OC(C)(C)C)c6ccccc6)[nH]5)cc4s3)cc2)[nH]1)C(C)C [compound 242] | < 1 nM
26 | COC(=O)N[C@H](C(=O)N1CCCC[C@H]1c1ncc(-c2ccc(-c3nc4ccc(-c5cnc([C@@H]6CCCCN6C(=O)[C@@H](NC(=O)OC)C(C)C)[nH]5)cc4s3)cc2)[nH]1)C(C)C [compound 243] | < 1 nM
27 | CCNC(=O)N[C@@H](C(=O)N1CCC[C@H]1c1ncc(-c2ccc3nc(-c4ccc(-c5cnc([C@@H]6CCCN6C(=O)[C@@H](NC(=O)OC)C(C)C)[nH]5)cc4)sc3c2)[nH]1)c1ccccc1 [compound 244] | < 1 nM
28 | CNC(=O)N[C@@H](C(=O)N1CCC[C@H]1c1ncc(-c2ccc3nc(-c4ccc(-c5cnc([C@@H]6CCCN6C(=O)[C@@H](NC(=O)OC)C(C)C)[nH]5)cc4)sc3c2)[nH]1)c1ccccc1 [compound 245] | < 1 nM
29 | COC(=O)N[C@H](C(=O)N1CCC[C@H]1c1ncc(-c2ccc(-c3nc4ccc(-c5cnc([C@@H]6CCCN6C(=O)OCc6ccccc6)[nH]5)cc4s3)cc2)[nH]1)C(C)C [compound 246] | < 1 nM
30 | COC(=O)N[C@H](C(=O)N1CCC[C@H]1c1ncc(-c2ccc(-c3nc4ccc(-c5cnc([C@@H]6CCCN6C(=O)[C@H](NC(=O)OC(C)(C)C)c6ccccc6)[nH]5)cc4o3)cc2)[nH]1)C(C)C [compound 247] | < 1 nM
31 | COC(=O)N[C@@H](C(=O)N1CCCC[C@H]1c1ncc(-c2ccc(-c3nc4ccc(-c5cnc([C@@H]6CCCCN6C(=O)[C@H](NC(=O)OC)c6ccccc6)[nH]5)cc4s3)cc2)[nH]1)c1ccccc1 [compound 248] | < 1 nM
